One block for each molecule: values may come before it.
Assays:
Icmt [1] = target: T1, Icmt (Homo sapiens, UniProt O60725); assay: Vapor diffusion assay; type: biochemical; settings: for IC50: read-out: Human Icmt IC50, 25 μM AFC, 20 μM 14C-SAM, 30 min at 30°C
Icmt [2] = target: T1, Icmt; assay: Icmt scintillation proximity assay; type: biochemical; settings: initial SPA screen, 50 μM
Icmt [3] = target: T1, Icmt; assay: Preliminary screen for Icmt substrate activity; type: biochemical
cancer cells = settings: cited from earlier work

T1 sequence (O60725 whole entry, the tested form may be a part): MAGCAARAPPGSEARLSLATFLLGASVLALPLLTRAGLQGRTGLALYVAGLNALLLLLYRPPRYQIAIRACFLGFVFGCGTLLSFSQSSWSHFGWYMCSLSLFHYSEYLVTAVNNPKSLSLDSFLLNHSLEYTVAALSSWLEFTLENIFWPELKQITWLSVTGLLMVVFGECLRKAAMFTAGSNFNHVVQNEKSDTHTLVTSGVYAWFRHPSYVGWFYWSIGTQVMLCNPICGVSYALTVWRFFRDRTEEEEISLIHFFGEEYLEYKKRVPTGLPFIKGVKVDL

Molecule: CC(C)=CCC/C(C)=C/CC/C(C)=C/CSC[C@H](NC(=O)CC12CC3CC(CC(C3)C1)C2)C(=O)O [4a, N-1-adamantylacetylcarbonyl-L-cysteine[S-(2E,6E)-3,7,11-trimethyldodeca-2,6,10-trienyl]-OH]
IC50 (Icmt [1]; VDA): 18.8 µM

Molecule: CC(C)=CCC/C(C)=C/CC/C(C)=C/CSC[C@H](NC(=O)C12CC3CC(CC1C3)C2)C(=O)O [4b, N-3-noradamantanecarbonyl-L-cysteine[S-(2E,6E)-3,7,11-trimethyldodeca-2,6,10-trienyl]-OH]
IC50 (Icmt [1]; VDA): 16.7 µM

Molecule: CC(C)=CCC/C(C)=C/CC/C(C)=C/CSC[C@H](NC(=O)C[C@H]1C[C@H]2CCC1C2)C(=O)O [4c, N-2-((2R,4S)-bicyclo[2.2.1]heptan-2-yl)acetyl-L-cysteine[S-(2E,6E)-3,7,11-trimethyldodeca-2,6,10-trienyl]-OH]
activity in the SPA (Icmt [2]): inactive

Molecule: CCCCCC12CCC(C(=O)N[C@@H](CSC/C=C(\C)CC/C=C(\C)CCC=C(C)C)C(=O)O)(CC1)CC2 [4d, N-4-pentylbicyclo[2.2.2]octane-1-carbonyl-L-cysteine[S-(2E,6E)-3,7,11-trimethyldodeca-2,6,10-trienyl]-OH]
IC50 (Icmt [1]; VDA): 16.7 µM

Molecule: CC(C)=CCC/C(C)=C/CC/C(C)=C/CSC[C@H](NC(=O)[C@]12CCC(CC1=O)C2(C)C)C(=O)O [4e, N-(1S)-7,7-dimethyl-2-oxobicyclo[2.2.1]heptane-1-carbonyl-L-cysteine[S-(2E,6E)-3,7,11-trimethyldodeca-2,6,10-trienyl]-OH]
IC50 (Icmt [1]; VDA): 15.6 µM

Molecule: CC(C)=CCC/C(C)=C/CC/C(C)=C/CSC[C@H](NC(=O)c1ccccc1-c1ccccc1)C(=O)O [4f, N-2-phenylbenzoyl-L-cysteine[S-(2E,6E)-3,7,11-trimethyldodeca-2,6,10-trienyl]-OH]
IC50 (Icmt [1]; VDA): 12.1 µM

Molecule: CC(C)=CCC/C(C)=C/CC/C(C)=C/CSC[C@H](NC(=O)Cc1cccc2ccccc12)C(=O)O [4g, N-1-napthylacetylcarbonyl-L-cysteine[S-(2E,6E)-3,7,11-trimethyldodeca-2,6,10-trienyl]-OH]
activity in the SPA (Icmt [2]): inactive

Molecule: CC(C)=CCC/C(C)=C/CC/C(C)=C/CSC[C@H](NC(=O)CO[C@@H]1C[C@H](C)CC[C@H]1C(C)C)C(=O)O [4h, N-2-((1R,2S,5R)-2-isopropyl-5-methylcyclohexyloxy)acetyl-L-cysteine[S-(2E,6E)-3,7,11-trimethyldodeca-2,6,10-trienyl]-OH]
IC50 (Icmt [1]; VDA): 22.9 µM

Molecule: CCCCCCCCC(=O)N[C@@H](CSC/C=C(\C)CC/C=C(\C)CCC=C(C)C)C(=O)O [4i, N-octylcarbonyl-L-cysteine[S-(2E,6E)-3,7,11-trimethyldodeca-2,6,10-trienyl]-OH]
activity in the SPA (Icmt [2]): inactive

Molecule: CC(C)=CCC/C(C)=C/CC/C(C)=C/CSC[C@H](NC(=O)CN1C(=O)OC[C@@H]1c1ccccc1)C(=O)O [5f, N-2-((S)-4-phenyl-2-oxo-oxazolidin-3-yl)acetyl-L-cysteine[S-(2E,6E)-3,7,11-trimethyldodeca-2,6,10-trienyl]-OH]
Icmt substrate activity (Icmt [3]): more efficient Icmt substrates than the prototypical N-acetylfarnesylcysteine

Molecule: CC(C)=CCC/C(C)=C/CC/C(C)=C/CSC[C@H](NC(=O)CCS(=O)(=O)c1ccccc1)C(=O)O [5l, N-3-(phenylsulfonyl)propanoyl-L-cysteine[S-(2E,6E)-3,7,11-trimethyldodeca-2,6,10-trienyl]-OH]
Icmt substrate activity (Icmt [3]): more efficient Icmt substrates than the prototypical N-acetylfarnesylcysteine

Molecule: CC(C)=CCC(=CCSC[C@H](NC(=O)c1ccccc1Oc1ccccc1)C(=O)O)CCc1ccc(-c2ccccc2)cc1 [compound 7, N-2-Phenoxybenzoyl-S-3-(3-methyl-but-2-enyl)-5-(4-biphenyl)pent-2-enyl-L-cysteine]
Icmt substrate activity (Icmt [3]): no substrate activity

Molecule: CCCCCCCCn1cc(CC(N)=O)c2cc(-c3cccc(C)c3)ccc21 [cysmethynil]
activity against cancer cells (cancer cells): exhibits activity against cancer cells

Next, values leading:

inhibition of Icmt (methylation of AFC) (Icmt [1]; VDA, at a concentration of 10 μM): ~80% | IC50 (Icmt [1]; VDA): 4.3 µM
Molecule: CC(C)=CCC/C(C)=C/CC/C(C)=C/CSC[C@H](NC(=O)c1ccccc1Oc1ccccc1)C(=O)O [5e, N-(2-oxyphenyl)benzoyl-L-cysteine[S-(2E,6E)-3,7,11-trimethyldodeca-2,6,10-trienyl]-OH]

Icmt inhibitory potency (in words) (Icmt [1]): potent analog
Molecule: N-2-(aminophenyl)benzoyl-L-cysteine[S-(2E,6E)-3,7,11-trimethyldodeca-2,6,10-trienyl]-OH [5h]

Reference: PMC2702710 (The Journal of organic chemistry, 2009)
